Source: patent US20240018153A1, “BENZENESULFONAMIDE DERIVATIVES AND USES THEREOF” (2692372 ONTARIO, INC., priority 2020, published 2024)

Columns and labels:
EGFR [1] = target: T1, EGFR (Homo sapiens (Human), UniProt P00533); assay: Time-dependent inhibition of EGFR (HTRF); format: biochemical; settings: pre-incubation 0-60 min
Protocol: For the time-dependent inhibition experiments, the activity of EGFR kinase was monitored using a HTRF® KinEASE-TK kit from Cisbio (62TK0PEC) as described above. Six compounds showing higher potency during dose response analysis against EGFR, were further evaluated for their change in inhibitory potency over time. Ibrutinib was used as a positive control. The selected compounds were pre incubated with the kinase at 11 different concentrations, ranging from […] to 25 uM final compound concentrations. The pre incubation times were 0, 2, 5, 10, 15, 30, 45 and 60 min. After the preincubation, the reaction was initiated by adding biotinylated substrate and ATP and the reaction was allowed to proceed for 45 min. […] The reaction was terminated by adding 31.25 nM SA-XL665 and 100 fold diluted europium labelled antibody (Eu-Ab), diluted in 1× detection buffer that contained EDTA. After 60 min of incubation, the fluorescence emission was measured at 620 nm and 665 nm. The ratio of Em 665 nm to Em 620 nm was proportional to the amount of substrate phosphorylated by the kinase. Product formation vs pre-incubation time data were fitted to a one phase exponential decay equation using GraphPad Prism. The same product formation vs inhibitor concentration data were also fitted to a log(antagonist) vs. response—Variable slope equation in GraphPad Prism to provide IC50 values at different pre incubation times.

BTK [2] = target: T2, BTK (Homo sapiens (Human), UniProt Q06187); assay: Time-dependent inhibition of BTK (HTRF); format: biochemical; settings: pre-incubation 0-45 min; for Time-dependent inhibition of BTK: product formation versus pre-incubation time: mono-exponential decay fit
Protocol: For the time-dependent inhibition experiments, the activity of BTK kinases was monitored using a HTRF® KinEASE-TK kit from Cisbio (62TK0PEC) as described above. […] The pre incubation times were 0, 1, 3, 5, 10, 15, 30 and 45 min. After the preincubation, reaction was initiated by adding biotinylated substrate and ATP and the reaction was allowed to proceed for 45 min. […] After 60 min of incubation, the fluorescence emission was measured at 620 nm and 665 nm. The ratio of Em 665 nm to Em 620 nm was proportional to the amount of substrate phosphorylated by the kinase. Product formation vs pre-incubation time data were fitted to a one phase exponential decay equation using GraphPad Prism. The same product formation vs inhibitor concentration data were also fitted to a log(antagonist) vs. response—Variable slope equation in GraphPad Prism to provide IC50 values at different pre incubation times.

BTK [3] = target: T2, BTK; assay: Jump dilution experiment, BTK; format: biochemical; settings: 1.5-h incubation, 142 nM BTK, 10×IC50 compound, 100-fold dilution
Protocol: Sample containing only DMSO vehicle was used as a positive (full activity) control while sample with no enzyme was used as a negative (zero activity) control. After the preincubation, the mixture was diluted 100-fold into a reaction mixture containing 1 uM biotinylated substrate and 28 uM ATP and the reaction was allowed to proceed for various time points (2, 5, 10, 15, 20, 30, 45 and 60 min), at which the reaction was terminated by adding 1 ul of 0.5 M EDTA. 62.5 nM SA-XL665 and 100-fold diluted europium labelled antibody (Eu-Ab), diluted in 1× detection buffer, was added as detection mixture. After 60 min of incubation, the fluorescence emission was measured at 620 nm and 665 nm. The ratio of Em 665 nm to Em 620 nm was proportional to the amount of substrate phosphorylated by the kinase.

EGFR [4] = target: T1, EGFR; assay: A549 cell lysis and immunoassay, total EGFR degradation; format: cell-based; design: key: Y: EGFR bound in cells and EGFR degradation occurred; settings: A549 cells
Protocol: (§1) A549 cells (ATCC) were cultured in Dulbecco's Modified Eagle's Medium (DMEM) (Wisent) supplemented with 10% FBS and 1% penicillin/streptomycin. Cells were seeded in 6-well plates at 530,000 cells/well and incubated at 37° C., 5% CO2 for 16 hours. Cells were starved in DMEM containing 1% FBS for 4 hours before they were treated with the indicated concentrations of compound or DMSO alone and incubated at 37° C., 5% CO2 for 24 hours. Prior to cell harvest and lysis, 50 ng/ml human epidermal growth factor (hEGF) (Sigma) was added to the cells and incubated at 37° C., 5% CO2 for 10 minutes. Conditioned media was discarded, and adherent cells were washed with PBS before they were scraped on ice. Cell suspensions were centrifugated at 2,000 RPM for 5 minutes at 4° C. and supernatants were discarded. Cell pellets were resuspended with 1× RIPA buffer (Millipore) and incubated on ice for 15 minutes. Protein lysates were extracted by centrifugating at 20,000 RPM for 20 minutes at 4° C. Proteins were separated and total EGFR protein levels were quantified by Simple Western Immunoassay (ProteinSimple) using the Protein Normalization Assay Module for Jess according to the manufacturer's protocol, using a protein concentration of 0.125 μg/μl and an antibody targeting EGFR (clone #EP38Y, Abcam) diluted to 1:400. Phosphorylated EGFR protein levels were quantified with the same assay using a protein concentration of 1 μg/μl and an antibody targeting pEGFR (Y1068) (Cell Signalling) diluted to 1:25. EGFR and phosphorylated EGFR levels were normalized to the Jess Protein Normalization Reagent loading control and subsequently to the DMSO control.

EGFR [5] = target: T1, EGFR; assay: A549 cell lysis and immunoassay, phospho-EGFR (Y1068) inhibition; format: cell-based; design: key: X: EGFR bound and autophosphoration of EGFR inhibited in cells; settings: A549 cells
Protocol: as §1

RIPK2 = RIPK2 (Homo sapiens (Human), UniProt O43353); assay: In vitro RIPK2 inhibition; format: biochemical; settings: for remaining activity at 1 µM: read-out: % RIPK2 Remaining activity vs DMSO (1 μM, 3 h); for remaining activity at 10 µM: read-out: % RIPK2 Remaining activity vs DMSO (10 μM, 3 h)
[6] = compound concentration 10, 24 h

T1 sequence (P00533 25-1210): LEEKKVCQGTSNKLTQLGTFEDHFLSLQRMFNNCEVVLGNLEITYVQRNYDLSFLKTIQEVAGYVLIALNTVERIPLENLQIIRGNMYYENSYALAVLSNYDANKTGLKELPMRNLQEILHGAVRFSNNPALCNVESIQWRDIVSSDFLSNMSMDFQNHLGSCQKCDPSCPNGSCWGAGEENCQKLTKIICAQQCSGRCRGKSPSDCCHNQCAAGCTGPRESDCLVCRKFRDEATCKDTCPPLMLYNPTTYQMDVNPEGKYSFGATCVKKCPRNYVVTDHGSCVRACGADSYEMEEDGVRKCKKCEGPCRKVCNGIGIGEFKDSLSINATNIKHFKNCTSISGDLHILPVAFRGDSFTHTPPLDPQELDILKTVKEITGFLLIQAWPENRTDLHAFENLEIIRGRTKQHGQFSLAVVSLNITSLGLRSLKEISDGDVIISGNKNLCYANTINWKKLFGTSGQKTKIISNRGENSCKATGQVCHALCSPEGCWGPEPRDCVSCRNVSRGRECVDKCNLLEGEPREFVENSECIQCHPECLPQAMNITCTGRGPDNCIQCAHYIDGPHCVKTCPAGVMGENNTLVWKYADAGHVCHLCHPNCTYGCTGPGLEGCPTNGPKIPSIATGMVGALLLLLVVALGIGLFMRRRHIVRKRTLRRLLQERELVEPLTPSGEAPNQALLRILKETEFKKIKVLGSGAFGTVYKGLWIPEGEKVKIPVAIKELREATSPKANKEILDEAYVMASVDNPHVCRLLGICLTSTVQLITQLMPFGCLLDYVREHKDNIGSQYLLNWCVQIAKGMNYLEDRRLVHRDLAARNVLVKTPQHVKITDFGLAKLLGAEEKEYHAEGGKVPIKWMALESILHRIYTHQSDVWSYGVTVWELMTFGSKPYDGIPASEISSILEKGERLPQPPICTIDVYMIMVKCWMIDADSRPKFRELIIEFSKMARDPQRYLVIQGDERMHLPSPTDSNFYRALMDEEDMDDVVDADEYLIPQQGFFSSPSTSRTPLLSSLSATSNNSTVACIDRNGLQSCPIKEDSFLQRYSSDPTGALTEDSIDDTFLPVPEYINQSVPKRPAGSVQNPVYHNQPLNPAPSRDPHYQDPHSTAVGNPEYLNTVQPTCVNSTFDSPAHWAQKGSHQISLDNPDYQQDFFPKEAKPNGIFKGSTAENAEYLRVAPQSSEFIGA
T2 sequence (Q06187 whole entry): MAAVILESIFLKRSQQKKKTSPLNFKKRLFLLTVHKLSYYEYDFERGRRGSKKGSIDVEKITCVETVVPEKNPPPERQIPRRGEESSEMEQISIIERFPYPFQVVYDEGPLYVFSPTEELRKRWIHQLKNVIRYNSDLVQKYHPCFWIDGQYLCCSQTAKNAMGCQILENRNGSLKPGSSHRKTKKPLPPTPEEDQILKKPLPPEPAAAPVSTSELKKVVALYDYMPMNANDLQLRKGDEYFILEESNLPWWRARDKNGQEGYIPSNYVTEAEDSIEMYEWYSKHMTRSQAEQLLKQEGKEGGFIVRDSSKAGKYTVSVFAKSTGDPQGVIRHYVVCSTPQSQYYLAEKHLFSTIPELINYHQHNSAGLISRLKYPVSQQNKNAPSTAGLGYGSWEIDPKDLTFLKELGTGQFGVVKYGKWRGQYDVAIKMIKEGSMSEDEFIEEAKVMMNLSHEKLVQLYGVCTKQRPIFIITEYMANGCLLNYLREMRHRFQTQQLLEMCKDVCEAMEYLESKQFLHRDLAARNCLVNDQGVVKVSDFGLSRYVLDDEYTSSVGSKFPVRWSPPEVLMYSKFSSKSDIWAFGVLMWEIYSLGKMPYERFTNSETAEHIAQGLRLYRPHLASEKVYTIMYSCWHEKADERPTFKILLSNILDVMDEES
Chain of RIPK2 (O43353 whole entry, species assumed): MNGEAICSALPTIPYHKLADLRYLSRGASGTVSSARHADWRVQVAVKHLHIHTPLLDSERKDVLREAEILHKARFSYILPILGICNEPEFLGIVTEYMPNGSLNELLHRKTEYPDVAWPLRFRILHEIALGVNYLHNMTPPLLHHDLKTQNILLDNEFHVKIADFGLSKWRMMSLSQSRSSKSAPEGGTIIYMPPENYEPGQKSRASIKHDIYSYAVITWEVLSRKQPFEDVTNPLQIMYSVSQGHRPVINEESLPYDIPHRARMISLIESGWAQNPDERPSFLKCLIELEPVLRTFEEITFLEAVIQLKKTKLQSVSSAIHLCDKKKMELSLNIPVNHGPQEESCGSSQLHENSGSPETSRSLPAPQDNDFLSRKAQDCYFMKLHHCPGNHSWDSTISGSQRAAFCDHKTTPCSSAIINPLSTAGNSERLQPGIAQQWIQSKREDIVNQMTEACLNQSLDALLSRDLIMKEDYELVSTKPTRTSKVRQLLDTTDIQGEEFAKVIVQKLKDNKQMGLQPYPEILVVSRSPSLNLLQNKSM

Row | SMILES | residual activity of BTK after jump dilution, relative to enzyme incubated with DMSO alone (BTK [3]) | EGFR degradation (A549, 1 μM, 24 h) (EGFR [4]) | EGFR degradation (A549, compound concentration, 24 h) (EGFR [4]; [6]) | pEGFR inhibition (A549, 1 μM, 24 h) (EGFR [5]) | pEGFR inhibition (A549, compound concentration, 24 h) (EGFR [5]; compound concentration 10 μM) | remaining activity at 1 µM (RIPK2) [%] | remaining activity at 10 µM (RIPK2) [%] | EGFR degradation (A549, compound concentration, 24 h) (EGFR [4]; compound concentration 5, 24 h) | pEGFR inhibition (A549, compound concentration, 24 h) (EGFR [5]; compound concentration 5 μM) | Time-dependent inhibition of EGFR: product formation versus pre-incubation time (EGFR [1]; mono-exponential decay fit) | Time-dependent inhibition of EGFR: IC50 values versus pre-incubation time (EGFR [1]) | Time-dependent inhibition of BTK: product formation versus pre-incubation time (BTK [2]) | Time-dependent inhibition of BTK: IC50 values versus pre-incubation time (BTK [2])
1 | C[S@+]([O-])c1c(F)c(F)c(F)c(F)c1C(=O)N1CC(n2nc(-c3ccc(Oc4ccccc4)cc3)c3c(N)ncnc32)C1 (racemic) [Compound I-37, (3-(4-amino-3-(4-phenoxyphenyl)-1H-pyrazolo[3,4-d]pyrimidin-1-yl)azetidin-1-yl)(2,3,4,5-tetrafluoro-6-(methylsulfinyl)phenyl)methanone] | less than 1% | Y | Y | X | X | 50 to 90 | > 90 | – | – | concentration-dependent first order loss of enzyme activity | decrease as pre-incubation times increase | concentration-dependent first order loss of enzyme activity | decrease as pre-incubation times increase
2 | CN(CCn1nc(-c2ccc(Oc3ccccc3)cc2)c2c(N)ncnc21)C(=O)c1c(F)c(F)c(F)c(F)c1S(N)(=O)=O [Compound I-33, N-(2-(4-amino-3-(4-phenoxyphenyl)-1H-pyrazolo[3,4-d]pyrimidin-1-yl)ethyl)-2,3,4,5-tetrafluoro-N-methyl-6-sulfamoylbenzamide] | less than 1% | Y | Y | X | X | 50 to 90 | > 90 | – | – | – | – | concentration-dependent first order loss of enzyme activity | decrease as pre-incubation times increase
3 | Nc1ncnc2c1c(-c1ccc(Oc3ccccc3)cc1)nn2CCCNC(=O)c1c(F)c(F)c(F)c(F)c1S(N)(=O)=O [Compound I-34, N-(3-(4-amino-3-(4-phenoxyphenyl)-1H-pyrazolo[3,4-d]pyrimidin-1-yl)propyl)-2,3,4,5-tetrafluoro-6-sulfamoylbenzamide] | less than 1% | Y | Y | X | – | > 90 | > 90 | – | – | – | – | concentration-dependent first order loss of enzyme activity | decrease as pre-incubation times increase

Further lines, with some results ahead:

Row | residual activity of BTK after jump dilution, relative to enzyme incubated with DMSO alone (BTK [3]) | EGFR degradation (A549, 1 μM, 24 h) (EGFR [4]) | EGFR degradation (A549, compound concentration, 24 h) (EGFR [4]; [6]) | pEGFR inhibition (A549, 1 μM, 24 h) (EGFR [5]) | pEGFR inhibition (A549, compound concentration, 24 h) (EGFR [5]; compound concentration 10 μM) | remaining activity at 1 µM (RIPK2) [%] | remaining activity at 10 µM (RIPK2) [%] | EGFR degradation (A549, compound concentration, 24 h) (EGFR [4]; compound concentration 5, 24 h) | pEGFR inhibition (A549, compound concentration, 24 h) (EGFR [5]; compound concentration 5 μM) | SMILES | Time-dependent inhibition of EGFR: product formation versus pre-incubation time (EGFR [1]; mono-exponential decay fit) | Time-dependent inhibition of EGFR: IC50 values versus pre-incubation time (EGFR [1]) | Time-dependent inhibition of BTK: product formation versus pre-incubation time (BTK [2]) | Time-dependent inhibition of BTK: IC50 values versus pre-incubation time (BTK [2])
4 | less than 1% | Y | Y | X | – | > 90 | > 90 | – | – | CS(=O)(=O)c1c(F)c(F)c(F)c(F)c1C(=O)NCCn1nc(-c2ccc(Oc3ccccc3)cc2)c2c(N)ncnc21 [Compound I-38, N-(2-(4-amino-3-(4-phenoxyphenyl)-1H-pyrazolo[3,4-d]pyrimidin-1-yl)ethyl)-2,3,4,5-tetrafluoro-6-(methylsulfonyl)benzamide] | – | – | concentration-dependent first order loss of enzyme activity | decrease as pre-incubation times increase
5 | less than 1% | – | – | X | – | > 90 | > 90 | Y | X | CN(C)S(=O)(=O)c1c(F)c(F)c(F)c(F)c1C(=O)NCCn1nc(-c2ccc(Oc3ccccc3)cc2)c2c(N)ncnc21 [Compound I-40, N-(2-(4-amino-3-(4-phenoxyphenyl)-1H-pyrazolo[3,4-d]pyrimidin-1-yl)ethyl)-2-(N,N-dimethylsulfamoyl)-3,4,5,6-tetrafluorobenzamide] | – | – | concentration-dependent first order loss of enzyme activity | decrease as pre-incubation times increase
